Laboratory results reported in US12605418B2, “Chebulinic acid and its enriched fraction from the fruits of Terminalia chebula for treatment of benign prostatic hyperplasia (BPH) and its preparation thereof” (COUNCIL OF SCIENTIFIC AND INDUSTRIAL RESEARCH, priority 2020, dated 2026).
Entries after “also recorded” stand apart in the source; their conditions may differ.

Experiments:
Format in all cases: in vivo, male Sprague-Dawley (SD) rats
[1] = test system: Testosterone-induced BPH rats; assay: Prostate weight and prostate weight index (PI) in testosterone-induced BPH rat model; details: for Prostate weight index (PI): oral once a day for 21 days, CA 100 mg/kg, CAEF 100/200 mg/kg, Finasteride 3 mg/kg, vs Testosterone induced group (FIG. 3); for Prostatic weight: BPH induced rats, vs induced group (FIGS. 3 and 6)
Experimental: 12-14-week-old (3 month) male Sprague-Dawley (SD) rats with initial body weights of 200-220 g were taken from National Animal Laboratory Centre, CSIR-Central drug research institute (CDRI), Lucknow. The animals were maintained in conditions in accordance with the rules and regulation of animal ethical committee. These rats were housed in a pathogen-free room at 23±2° C. and a relative humidity of 70% with an alternating 12 h light/dark cycle. To assess the therapeutic effect of Chebulinic Acid (CA) and Chebulinic acid Enriched fraction (CAEF) on Benign Prostatic Hyperplasia (BPH), rat BPH model has been successfully generated by testosterone induction method. For model induction of BPH, Orchiectomy (Surgical removal of Testis) of rats was performed and then animals were left for ten days to recover. Now BPH was induced through the daily subcutaneous injections of Testosterone (5 mg/kg & 6.25 mg/ml in Corn Oil) at the inguinal region for 28 days continuously. While the treatment group received 7 days continuous administration of Testosterone and then Testosterone+CA (100 mg/kg B.W) or Testosterone+CAEF (100/200 mg/kg B.W.) or Testosterone+Finasteride (3 mg/kg) were administered orally once a day to these animals for next 21 days (FIG. 3). In another experiment the treatment group received 7 days continuous administration of Testosterone and then Testosterone+CAEF (100 mg/kg B.W.) administered orally once a day to these animals for next 4 weeks (group 1) 8 weeks (group 2) and 12 weeks (group 3) (FIG. 6). After that these animals were left for fasting overnight and sacrificed next day; their prostatic as well as other reproductive organs were dissected out. Portions of the prostatic ventral lobes were stored in 4% paraformaldehyde for histological and immuno-histochemical processing. Half of the remaining prostate tissue was stored in RNA later and the other half was stored at −80° C. for subsequent biochemical and molecular experiments. Blood samples were obtained from the caudal vena cava and collected in serum separating tubes. Testosterone induced BPH animal models were sacrificed after the simultaneous treatment of 21 days. The intact prostate tissue was dissected and removed carefully from these sacrificed animals. Now the prostate weight (PW) was measured and the prostate index (PI) was calculated as PW (mg)/Body Weight (gm)×100. Data were expressed as the mean±SEM of four animals per group (n=4 per group). The values were analysed using one-way analysis of variance. Values were considered statistically significant at p<0.05.

[2] = test system: Vascular endothelial growth factor (VEGF); assay: Expression of VEGF in BPH induced rat model; details: within three weeks; vs non-treated induced BPH group; finasteride positive control
[3] = test system: Procaspase 3; assay: Expression of Procaspase 3 in BPH induced rat model; details: vs induced animal model; finasteride positive control
[4] = test system: Poly [ADP-ribose] polymerase 1 (PARP1); assay: Expression of PARP1 in BPH induced rat model; details: vs BPH induced group; finasteride positive control
Experimental: (§1) To assess the therapeutic effect of Chebulinic Acid (CA) and Chebulinic acid Enriched fraction (CAEF) on Benign Prostatic Hyperplasia (BPH), rat BPH model has been successfully generated by testosterone induction method. For model induction of BPH, Orchiectomy (Surgical removal of Testis) of rats was performed and then animals were left for ten days to recover. Now BPH was induced through the daily subcutaneous injections of Testosterone (5 mg/kg & 6.25 mg/ml in Corn Oil) at the inguinal region for 28 days continuously. While the treatment group received 7 days continuous administration of Testosterone and then Testosterone+CA (100 mg/kg B.W) or Testosterone+CAEF (100/200 mg/kg B.W.) or Testosterone+Finasteride (3 mg/kg) were administered orally once a day to these animals for next 21 days (FIG. 3). In another experiment the treatment group received 7 days continuous administration of Testosterone and then Testosterone+CAEF (100 mg/kg B.W.) administered orally once a day to these animals for next 4 weeks (group 1) 8 weeks (group 2) and 12 weeks (group 3) (FIG. 6). After that these animals were left for fasting overnight and sacrificed next day; their prostatic as well as other reproductive organs were dissected out. Portions of the prostatic ventral lobes were stored in 4% paraformaldehyde for histological and immuno-histochemical processing. […]

[5] = test system: prostatic tissues in testosterone induced BPH rats; assay: Histopathological examination (H&E) of prostate tissue in testosterone-induced BPH rats; details: for Histological conditions / architecture of the prostate: BPH induced rats (FIG. 4)
[6] = test system: Prostate-Specific Antigen (PSA); assay: PSA expression in prostate tissue and serum of BPH rats (western blot); details: three weeks, CA 100 mg/kg, CAEF 200 mg/kg, CAEF formulation 200 mg/kg
[7] = test system: PSA; assay: PSA level in serum of BPH rats (ELISA); details: summary statement, FIGS. 5 and 7
[8] = Testosterone serum level in BPH rats; details: BPH induced rats after treatment
[9] = test system: anti-apoptotic markers; assay: Anti-apoptotic markers in BPH rats (FIGS. 8-13, summary); details: summary of FIGS. 8-13
Experimental: as §1

SMILES | Prostate weight index (PI) [1] | Expression of VEGF [2] | Expression of Procaspase 3 [3] | Expression of PARP1 [4] | Prostatic weight index compared with normal control group ([1]; 100/200 mg/kg dose (FIG. 3) and 100 mg/kg of CAEF (FIG. 6)) | Prostatic weight [1] | Prostatic weight ([1]; listed as Chebulinic acid) | Development of prostatic hyperplasia ([1]; testosterone-induced BPH rats) | Histological conditions / architecture of the prostate [5] | Histological conditions / architecture of the prostate ([5]; listed as Chebulinic acid) | Glandular hyperplasia of the prostate (histopathological examination) ([5]; BPH rats) | Prostatic lumen area ([5]; H&E, CA/CAEF 100/200 mg/kg, vs Induced BPH group (FIG. 4)) | PSA expression in prostate tissue [6] | PSA expression in serum [6] | Level of PSA in sera [7] | Level of testosterone in sera [8] | Anti-apoptotic markers [9]
CC(C)(C)NC(=O)[C@H]1CC[C@H]2[C@@H]3CC[C@H]4NC(=O)C=C[C@]4(C)[C@H]3CC[C@]12C [Finasteride] | close to the 200 mg/kg CA/CAEF treated group | reduced expression | decreased expression | reduced expression |  |  |  |  |  |  |  |  |  |  |  |  | 
O=C(O)CC1C(=O)OC2C(COC(=O)c3cc(O)c(O)c(O)c3)OC(OC(=O)c3cc(O)c(O)c(O)c3)C(OC(=O)c3cc(O)c(O)c4c3C1C(O)C(=O)O4)C2OC(=O)c1cc(O)c(O)c(O)c1 [CA, 1.3,6-tri-O-galloyl-2,4-chebuloyl-beta-D-glucose] | significantly decreased; also recorded: reduced significantly |  |  |  | quite close to the normal control group | reduced significantly; also recorded: significant reduction | decreased the prostate weight | significantly suppressed; also recorded: suppressed the development of prostatic hyperplasia considerably | improved histological conditions | restored the altered histological architecture | mild glandular hyperplasia | increased prostatic lumen areas significantly | down-regulated | down-regulated | reduced level | reduced level | down-regulated
